Activity calls are given as the source filed them.
Assays:
Cytochrome P450 3A4 = Cytochrome P450 3A4 (Homo sapiens, UniProt P08684);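 also: CYP3A4 tested as one member of a cytochrome P450 panel screen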
[1] = molecular target: T1, Microphthalmia-associated transcription factor (Homo sapiens, UniProt O75030); assay: reducers of TRPM1 reporter luminescence, concentration series – cell-based, SK-MEL-5, cherry-picked, set 3, MITF inhibitor project, dose response (AID 493073); type: functional;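 also: SK-MEL-5 melanoma cells with luciferase driven by the MITF target TRPM1 promoter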
T1 sequence (O75030 whole entry): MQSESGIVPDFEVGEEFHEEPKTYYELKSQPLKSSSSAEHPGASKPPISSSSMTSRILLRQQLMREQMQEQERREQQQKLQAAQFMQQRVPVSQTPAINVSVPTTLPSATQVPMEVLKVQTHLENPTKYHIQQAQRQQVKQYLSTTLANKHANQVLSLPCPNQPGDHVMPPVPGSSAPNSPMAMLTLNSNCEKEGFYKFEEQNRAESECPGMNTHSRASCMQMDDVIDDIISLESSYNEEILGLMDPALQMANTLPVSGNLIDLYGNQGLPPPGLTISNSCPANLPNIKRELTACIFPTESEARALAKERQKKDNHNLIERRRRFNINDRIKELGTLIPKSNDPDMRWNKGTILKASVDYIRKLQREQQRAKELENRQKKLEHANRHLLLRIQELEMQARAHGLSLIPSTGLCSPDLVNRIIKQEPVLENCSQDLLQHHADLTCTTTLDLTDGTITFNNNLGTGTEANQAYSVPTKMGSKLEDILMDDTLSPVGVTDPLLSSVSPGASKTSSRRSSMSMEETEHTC

[2] = molecular target: T2, Heat shock factor protein 1 (Mus musculus, UniProt P38532); assay: decrease of HSF1-responsive luciferase luminescence – cell-based, NIH3T3, dose retest, confirmation (AID 2382); type: functional;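 also: NIH3T3 fibroblasts with HSF1-driven luciferase reporter stressed by proteasome inhibitor MG132; luminescence from HSF1-driven luciferase expression after 8 hours of MG132 stress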
T2 sequence (P38532 whole entry): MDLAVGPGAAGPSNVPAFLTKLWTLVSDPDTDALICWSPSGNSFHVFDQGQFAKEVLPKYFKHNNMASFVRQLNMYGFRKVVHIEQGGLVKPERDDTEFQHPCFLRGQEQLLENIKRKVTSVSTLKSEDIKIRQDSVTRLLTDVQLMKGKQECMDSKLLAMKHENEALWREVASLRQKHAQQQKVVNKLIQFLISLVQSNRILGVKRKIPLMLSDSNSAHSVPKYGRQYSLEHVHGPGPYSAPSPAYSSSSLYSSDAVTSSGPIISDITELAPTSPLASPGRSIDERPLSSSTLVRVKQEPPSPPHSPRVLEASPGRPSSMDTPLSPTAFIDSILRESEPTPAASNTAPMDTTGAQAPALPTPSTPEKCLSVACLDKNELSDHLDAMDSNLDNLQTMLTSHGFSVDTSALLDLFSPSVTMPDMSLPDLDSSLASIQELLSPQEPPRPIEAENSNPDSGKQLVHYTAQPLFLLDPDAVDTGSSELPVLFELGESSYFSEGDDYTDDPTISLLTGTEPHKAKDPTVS

[3] = HEK-293T cell viability reduction – luminescence, B-cell screen hits, cytotoxicity control for BCR NF-kB inhibitor project, dose response (AID 489021); type: functional, cell-based;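 also: HEK-293T cells carrying an NF-kB luciferase reporter; cells exposed to compound for about 14 hours before viability readout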
INS1 = assay: INS-1E survival protection against cytokine death – cell-based, luminescence, retest, dose response (AID 449756); type: functional; conditions: Rattus norvegicus;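 also: cell death triggered by IL-1 beta plus TNF-alpha plus IFN-gamma mixture; protective hits raise ATP signal compared with cytokine alone wells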
[4] = molecular target: T2, Heat shock factor protein 1; assay: enhancement of HSF1-driven luciferase signal – cell-based, NIH3T3, luminescence, dose retest, confirmation (AID 435004); type: functional;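 also: stress induced by proteasome inhibitor MG132 added 30 min after compound; luciferase reporter driven by HSF1 response element in NIH3T3 cells; actives raise luminescence as potentiators of the MG132 stress response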
[5] = NIH-3T3 fibroblast cytotoxicity, dose response, cytotoxicity control, cell-based, fluorescence, Alamar Blue, secondary assay (AID 2327); type: functional;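 also: NIH-3T3 mouse fibroblasts cultured with fluconazole at 8 µg/mL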
[6] = viability of HCT116 lacking mutant beta-catenin – cell-based, human colon tumor, dose response (AID 1045); type: functional;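 also: HCT116 colon tumor cells with beta catenin knocked out; cells exposed to compound for 60 hours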
[7] = molecular target: T3, Short transient receptor potential channel 4 (Mus musculus, UniProt Q9QUQ5); assay: block of DAMGO-driven TRPC4 calcium entry – cell-based, HEK293 TRPC4/mu-opioid, Fluo-4 calcium, dose response (AID 434942); type: functional;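 also: potency of inhibitors blocking the TRPC4 calcium response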
T3 sequence (Q9QUQ5 whole entry): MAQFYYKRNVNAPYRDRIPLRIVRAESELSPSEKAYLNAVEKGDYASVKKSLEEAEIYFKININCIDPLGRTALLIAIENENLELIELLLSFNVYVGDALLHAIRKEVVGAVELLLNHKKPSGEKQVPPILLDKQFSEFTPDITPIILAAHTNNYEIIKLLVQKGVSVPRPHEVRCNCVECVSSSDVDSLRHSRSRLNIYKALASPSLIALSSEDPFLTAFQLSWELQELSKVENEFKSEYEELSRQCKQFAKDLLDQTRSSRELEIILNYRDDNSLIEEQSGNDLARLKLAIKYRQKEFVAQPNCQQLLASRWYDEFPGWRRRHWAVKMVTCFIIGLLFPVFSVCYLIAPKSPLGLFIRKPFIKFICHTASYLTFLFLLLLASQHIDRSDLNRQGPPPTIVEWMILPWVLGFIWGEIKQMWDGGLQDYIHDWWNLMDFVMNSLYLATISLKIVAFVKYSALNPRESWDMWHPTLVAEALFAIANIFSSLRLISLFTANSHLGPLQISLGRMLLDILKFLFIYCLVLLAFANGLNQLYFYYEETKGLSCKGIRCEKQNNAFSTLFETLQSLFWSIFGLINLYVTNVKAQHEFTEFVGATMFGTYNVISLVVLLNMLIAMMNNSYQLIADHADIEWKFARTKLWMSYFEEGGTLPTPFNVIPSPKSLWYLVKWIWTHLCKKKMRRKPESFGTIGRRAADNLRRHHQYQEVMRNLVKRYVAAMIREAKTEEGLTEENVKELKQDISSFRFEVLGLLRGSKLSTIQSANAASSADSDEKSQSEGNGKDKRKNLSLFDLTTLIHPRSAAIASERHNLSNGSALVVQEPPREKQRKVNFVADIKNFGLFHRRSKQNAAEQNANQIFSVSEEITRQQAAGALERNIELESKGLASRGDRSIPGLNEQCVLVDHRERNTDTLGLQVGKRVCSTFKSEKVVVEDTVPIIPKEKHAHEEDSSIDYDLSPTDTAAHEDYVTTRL

[8] = NIH3T3 cell viability loss – ATP luminescence, mouse fibroblasts, counter-screen, dose response (AID 2010); type: functional, cell-based;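 also: cells exposed to compound for about 90 hours before reading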
[9] = viability of PTEN-deleted HCT116 cells – cell-based, HCT116 PTEN knockout, dose response (AID 1047); type: functional;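 also: HCT116 colon tumor cells with PTEN knocked out; cells exposed to compound for 60 hours before readout; potency for loss of cell viability measured by luminescence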
[10] = Trypanosoma cruzi growth suppression in host cells – NIH3T3 host cells, beta-gal luminescence, confirmation (AID 2044); type: functional, cell-based;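 also: intracellular parasites grown in NIH/3T3 mouse fibroblasts as host cells; luminescent beta-galactosidase reporter signal from transgenic T. cruzi replicating inside host cells; inhibitors lower the luminescence signal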
[11] = A Cell Based Secondary Assay To Explore Cytotoxicity of Compounds that Sensitize Mycobacterium Tuberculosis to Beta-Lactam Antibiotics.; type: functional
[12] = fluconazole-exposed Candida albicans growth modulators – fluorescence, retest, confirmation (AID 2467); type: functional, cell-based
[13] = HEK-293T viability loss after treatment – luminescence, T-cell screen hits, cytotoxicity control for TCR NF-kB inhibitor project, dose response (AID 489026); type: functional, cell-based;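 also: cells exposed to compound about 14 hours before the viability readout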
[14] = DRD fibroblast viability loss – cell-based, non-viral oncogenic, luminescence, dose response (AID 1934); type: functional; conditions: Homo sapiens
BJ [15] = assay: cells; type: functional, cell-based; conditions: Homo sapiens
BJ [16] = assay: BJ-TERT-LT-ST fibroblast viability loss – cell-based, RAS-independent, luminescence, dose response (AID 1935); type: functional; conditions: Homo sapiens;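 also: BJ fibroblasts immortalized with TERT plus LT and ST oncogenes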
BJ [17] = assay: BJ-TERT fibroblast viability loss – cell-based, RAS-independent, luminescence, dose response (AID 1933); type: functional; conditions: Homo sapiens
[18] = alpha-synuclein stem-loop luciferase translation blockers – H4 neuroglioma cells, luminescence, confirmation (AID 1988); type: functional, cell-based
[19] = Luminescence Cell-Based Dose Response HTS to Identify Inhibitors of 5'UTR Stem-Loop Driven Prion Protein mRNA Translation in H4 Neuroglioblastoma Cells. [Related pubchem assays: 1827 (Project Summary), 1813 (Primary HTS)]; type: functional
[20] = luciferase reporter signal suppression in cells – H4 neuroglioma cells, luminescence, dose response (AID 1990); type: functional, cell-based
Vero [21] = assay: cells; type: functional, cell-based; conditions: Chlorocebus sabaeus
[22] = molecular target: Glucose-6-phosphate 1-dehydrogenase (Homo sapiens, UniProt P11413); assay: inhibition of Homo sapiens G6PD, dose series – biochemical, fluorescence, selectivity assay for P. falciparum G6PD inhibitor project, dose response (AID 504792); type: functional
Chain of Glucose-6-phosphate 1-dehydrogenase (P11413 whole entry): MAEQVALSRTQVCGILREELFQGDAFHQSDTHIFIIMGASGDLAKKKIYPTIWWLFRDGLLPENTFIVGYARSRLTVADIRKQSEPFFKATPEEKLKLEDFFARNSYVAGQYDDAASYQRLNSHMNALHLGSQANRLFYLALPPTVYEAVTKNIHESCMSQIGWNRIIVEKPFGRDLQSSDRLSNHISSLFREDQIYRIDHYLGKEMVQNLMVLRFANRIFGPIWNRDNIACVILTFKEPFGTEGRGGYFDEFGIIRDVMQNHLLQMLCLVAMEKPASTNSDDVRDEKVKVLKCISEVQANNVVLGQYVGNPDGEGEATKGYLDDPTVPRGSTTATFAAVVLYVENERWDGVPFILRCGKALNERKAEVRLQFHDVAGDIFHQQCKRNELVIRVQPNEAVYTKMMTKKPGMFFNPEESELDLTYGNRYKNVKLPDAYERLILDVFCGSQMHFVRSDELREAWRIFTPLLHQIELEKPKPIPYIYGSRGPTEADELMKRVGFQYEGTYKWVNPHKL

[23] = microbe, parasite or virus in culture; type: functional; conditions: Mycobacterium tuberculosis
[24] = Vero E6 cell cytotoxicity, dose response, cytotoxicity control for non-replicating M. tuberculosis project, secondary assay (AID 492998); type: functional, VeroE6; conditions: Vero C1008
[25] = THP-1 cell cytotoxicity, dose response, cytotoxicity control for non-replicating M. tuberculosis project (AID 489025); type: functional
cells = type: functional
Vero [26] = assay: cells; type: functional; conditions: Chlorocebus sabaeus
[27] = molecular target: T4, High affinity choline transporter 1 (Homo sapiens, UniProt Q9GZV3); assay: human choline transporter blockers, potency – cell-based, 5-point CRC, membrane potential dye, dose response (AID 504840); type: functional
T4 sequence (Q9GZV3 whole entry): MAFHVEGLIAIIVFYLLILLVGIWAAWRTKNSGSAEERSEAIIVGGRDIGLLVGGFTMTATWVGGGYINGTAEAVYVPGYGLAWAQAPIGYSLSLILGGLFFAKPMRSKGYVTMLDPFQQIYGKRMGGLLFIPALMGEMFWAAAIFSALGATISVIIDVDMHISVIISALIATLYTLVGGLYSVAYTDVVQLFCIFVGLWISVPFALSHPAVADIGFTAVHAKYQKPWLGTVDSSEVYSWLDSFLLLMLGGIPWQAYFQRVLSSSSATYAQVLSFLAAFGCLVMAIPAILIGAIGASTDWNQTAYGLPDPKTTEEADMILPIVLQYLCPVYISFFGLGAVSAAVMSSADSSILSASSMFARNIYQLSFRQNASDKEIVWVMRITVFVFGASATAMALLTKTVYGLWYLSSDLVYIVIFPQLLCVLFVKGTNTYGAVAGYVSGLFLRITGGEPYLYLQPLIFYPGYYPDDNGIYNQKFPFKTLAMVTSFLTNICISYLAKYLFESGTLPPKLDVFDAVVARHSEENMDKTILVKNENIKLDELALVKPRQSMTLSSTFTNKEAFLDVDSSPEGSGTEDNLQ

[28] = system: Streptococcus sp. 'group A'; assay: Streptococcus pyogenes SK(-)GAS viability under kanamycin – luminescence, BacTiterGlo, confirmation, counter-screen for streptokinase expression inhibitor project, dose response (AID 1900); type: functional, organism-based
Streptococcus = assay: GAS UMAA2166 growth inhibition – luminescence, BacTiterGlo, counter-screen for streptokinase expression inhibitor project, dose response (AID 1915); type: functional, organism-based;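 also: potency for reduction of bacterial viability or growth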

Chain of Cytochrome P450 3A4 (P08684 whole entry): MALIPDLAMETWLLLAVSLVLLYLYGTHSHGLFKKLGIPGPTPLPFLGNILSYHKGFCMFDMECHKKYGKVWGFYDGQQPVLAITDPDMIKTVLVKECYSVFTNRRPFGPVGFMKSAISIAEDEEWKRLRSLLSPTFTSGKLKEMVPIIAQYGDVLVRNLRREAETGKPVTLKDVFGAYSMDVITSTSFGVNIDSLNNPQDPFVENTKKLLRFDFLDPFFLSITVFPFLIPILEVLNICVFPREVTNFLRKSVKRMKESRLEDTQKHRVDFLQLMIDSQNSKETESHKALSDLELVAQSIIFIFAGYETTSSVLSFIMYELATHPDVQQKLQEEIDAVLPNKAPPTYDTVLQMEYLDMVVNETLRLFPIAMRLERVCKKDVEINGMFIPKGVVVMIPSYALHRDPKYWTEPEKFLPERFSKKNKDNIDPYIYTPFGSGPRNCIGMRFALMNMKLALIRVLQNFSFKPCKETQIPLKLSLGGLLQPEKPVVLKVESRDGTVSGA

COc1cc2nc(N3CCN(C(=O)c4ccco4)CC3)nc(N)c2cc1OC [PRAZOSIN]
AC50 (Cytochrome P450 3A4): inconclusive

O=C(c1csnn1)N1CCC2(CC1)CN(c1ccccn1)C2
AC50 (Cytochrome P450 3A4): inconclusive

Cn1c(S)nnc1CCNC(=O)c1ccccc1Cl
AC50 (Cytochrome P450 3A4): inconclusive

O=C1CCC2S/C(=C/Nc3ccc(C(F)(F)F)cc3)C(=O)N12 (stereo not given)
AC50 [1]: 3.57 µM (active)
EC50 [2]: 2.44 µM (active)
IC50 [3]: > 80 µM (inactive)

CC#CC[N+](C)(C)CCCCCCCCCCCC
AC50 (INS1): 1.85 µM (active)
EC50 [4]: > 260 µM (inactive)
EC50 [5]: > 150 µM (inactive)
EC50 [6]: 5.82 µM (active)
EC50 [7]: 1.5 µM (active)
EC50 [8]: > 30 µM (not active)
EC50 [9]: 4.9 µM (active)
EC50 [10]: 1.05 µM (active)
CC50 [11]: > 40 µM (active)
EC50 [12]: 2.85 µM (active)

Cc1cc(C)cc(OCc2nnc(SCC(=O)c3ccccc3)o2)c1
IC50 [3]: > 80 µM (inactive)

COc1ccccc1CNS(=O)(=O)c1ccc(-c2cc(C)no2)cc1
IC50 [13]: 79.8 µM (inactive)
EC50 [14]: 1.34 µM (active)
EC50 (BJ [15]): 53.8 µM (inconclusive)
EC50 (BJ [16]): 0.83 µM (active)
EC50 (BJ [17]): 1.92 µM (active)

O=C1C2CCCN2C(c2cccs2)N1c1ccc(Cl)cc1 (stereo not given)
EC50 [18]: 49.9 µM (active)
EC50 [19]: 17 µM (active)
EC50 [20]: 45.2 µM (active)
IC50 (Vero [21]): 17.1 µM (active)

COC(=O)c1cc2c(cn1)[nH]c1ccccc12 [BETA-CCM]
AC50 (Cytochrome P450 3A4): inconclusive

CC(C)Cn1c([N+](=O)[O-])nc2c1c(=O)[nH]c(=O)n2C
IC50 [22]: > 80 µM (inactive)
CC50 [23]: 12.4 µM (active)
CC50 [24]: 14.6 µM (active)
CC50 [25]: 9.18 µM (active)
IC50 (cells): 5.98 µM (active)
IC50 [3]: 47.3 µM (inactive)

COc1ccccc1CNS(=O)(=O)c1ccc(-c2cnc(C3CC3)o2)cc1
IC50 [13]: > 80 µM (inactive)

CCOc1ccccc1C1CC(=O)Nc2cc(C)c(C)cc21 (stereo not given)
IC50 [13]: > 80 µM (inactive)
EC50 [14]: 18.1 µM (active)
EC50 (BJ [15]): 53.3 µM (active)
EC50 (BJ [16]): 23.5 µM (active)
EC50 (BJ [17]): 14 µM (active)

O=C1Nc2ccccc2/C1=C/C(=O)c1cccs1
CC50 (Vero [26]): 17.6 µM (active)
EC50 [5]: > 150 µM (inactive)
EC50 [6]: 5.7 µM (active)
CC50 [24]: 14.4 µM (active)
CC50 [25]: 21.1 µM (active)
IC50 (cells): 8.52 µM (active)
EC50 [9]: 7.47 µM (active)
EC50 [2]: > 195 µM (not active)
EC50 [12]: 1.75 µM (active)

CCOC(=O)Cc1csc(NC(=S)NC(=O)c2ccc(C)cc2)n1
IC50 [3]: > 80 µM (inactive)

Cc1cc(C)nc(SCc2cc(=O)c(OC(=O)c3ccco3)co2)n1
IC50 [27]: 12.3 µM (active)

CC(C)(C)c1ccc(C(=O)Nc2nnc(C3=COCCO3)o2)cc1
EC50 [28]: 0.429 µM (active)
CC50 [24]: > 20 µM (active)
CC50 [25]: 34.2 µM (active)
IC50 (cells): 2.11 µM (active)
EC50 (Streptococcus): 9.1 µM (active)

From ChEMBL document CHEMBL1201862, “PubChem BioAssay data set” (2004)
